Columns and labels:
[1] = target: human full length His-tagged BTK (Homo sapiens (Human), UniProt Q06187); assay: BTK Lanthscreen Eu Kinase Binding assay; details: TR-FRET tracer displacement, 2 nM BTK, 30 min pre-incubation
Experimental: BTK Lanthscreen® Eu Kinase Binding assay:
A Lanthscreen® Eu Kinase Binding assay (Life Technologies) was performed to quantitate the ability of test compounds to bind to BTK. The assay is based on the binding and displacement of Alexa Fluor647-labeled Kinase Tracer #236 to the ATP-binding site of human full length His-tagged BTK (Life Technologies cat # PV3587) with TR-FRET detection using a europium-labeled anti-His antibody. The assay was assembled in 384-well low volume NBS black plates (Corning) where 2 nM BTK and test compound in DMSO at varying concentrations were pre-incubated for 30 min at 28° C. in assay buffer consisting of 50 mM HEPES, pH 7.4, 10 mM MgCl2, 1 mM EGTA. 100 μM Na3VO4 and 0.01% Brij 35. Then, 2 nM of Eu-anti His antibody and 30 nM Kinase Tracer were added and incubated for […] at 28° C. Following incubation, TR-FRET signal was read on an Envision plate reader (Excitation: 340 nm; Emissions: 615 and 665 nm). The 665: 615 nm emission ratio was calculated and converted to POC compared to control and blank wells.

BTK = BTK (Homo sapiens (Human), UniProt Q06187); assay: Inhibition of IL-6 production in B cells co-stimulated with ODN 2006 and anti-hIgD; format: cell-based; details: primary CD19+ B cells, anti-human IgD + ODN 2006 stimulation, 18-24 hours; read-out: B-cell IL-6 IC50
Chain of BTK (Q06187 whole entry): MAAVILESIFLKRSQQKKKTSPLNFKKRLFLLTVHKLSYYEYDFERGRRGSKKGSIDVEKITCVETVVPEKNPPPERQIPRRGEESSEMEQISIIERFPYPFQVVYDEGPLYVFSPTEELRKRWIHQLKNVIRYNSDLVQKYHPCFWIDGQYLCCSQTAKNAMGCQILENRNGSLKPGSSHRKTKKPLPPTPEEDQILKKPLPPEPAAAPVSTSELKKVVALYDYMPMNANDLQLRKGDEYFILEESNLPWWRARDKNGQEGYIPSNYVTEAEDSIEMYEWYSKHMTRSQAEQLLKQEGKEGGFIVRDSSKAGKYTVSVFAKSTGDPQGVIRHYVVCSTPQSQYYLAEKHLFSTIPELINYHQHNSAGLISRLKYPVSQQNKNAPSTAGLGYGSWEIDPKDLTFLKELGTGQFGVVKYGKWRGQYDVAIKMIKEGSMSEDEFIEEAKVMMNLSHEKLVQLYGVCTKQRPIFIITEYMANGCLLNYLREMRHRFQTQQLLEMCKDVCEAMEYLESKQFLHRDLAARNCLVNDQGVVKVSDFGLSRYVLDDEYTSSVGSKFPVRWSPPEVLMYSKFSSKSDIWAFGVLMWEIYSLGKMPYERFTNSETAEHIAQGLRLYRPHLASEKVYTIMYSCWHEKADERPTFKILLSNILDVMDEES
Experimental: Inhibition of IL-6 Production in B Cells Co-Stimulated with ODN 2006 and Anti-hIgD
Primary CD19+ B cells (AllCells # PB010F) are thawed and plated in RPMI containing 10% HI FBS in a 384-well tissue cultured plate at 20,000 cells/well. The cells are treated with test compound (0.5% DMSO final concentration) and incubated for 1 hour at 37° C., 5% CO2. Cells are then stimulated with 5 μg/mL Goat F(ab′)2 anti-human IgD (SouthernBiotech #2032) and 2 uM ODN 2006 (InvivoGen # till-2006) and incubated for 18-24 hours at 37° C., 5% CO2. IL-6 in the supernatant is measured using Meso Scale Discovery kit # K211AKB-6.
(§1) The compounds described herein show a range of selectivity against EGFR as measured in cellular assays (BTK activity measured by IL-6 production in primary CD19^+ cells; EGFR activity measured by EGFR phosphorylation in A431 cells).

EGFR = EGFR (Homo sapiens (Human), UniProt P00533); assay: Inhibition of EGFR autophosphorylation in A431 human epithelial cells stimulated with epithelial growth factor; format: cell-based; details: 16 hours compound, EGF 60 ng/mL 10 minutes, read-out: A431 p-EGFR IC50
Chain of EGFR (P00533 25-1210): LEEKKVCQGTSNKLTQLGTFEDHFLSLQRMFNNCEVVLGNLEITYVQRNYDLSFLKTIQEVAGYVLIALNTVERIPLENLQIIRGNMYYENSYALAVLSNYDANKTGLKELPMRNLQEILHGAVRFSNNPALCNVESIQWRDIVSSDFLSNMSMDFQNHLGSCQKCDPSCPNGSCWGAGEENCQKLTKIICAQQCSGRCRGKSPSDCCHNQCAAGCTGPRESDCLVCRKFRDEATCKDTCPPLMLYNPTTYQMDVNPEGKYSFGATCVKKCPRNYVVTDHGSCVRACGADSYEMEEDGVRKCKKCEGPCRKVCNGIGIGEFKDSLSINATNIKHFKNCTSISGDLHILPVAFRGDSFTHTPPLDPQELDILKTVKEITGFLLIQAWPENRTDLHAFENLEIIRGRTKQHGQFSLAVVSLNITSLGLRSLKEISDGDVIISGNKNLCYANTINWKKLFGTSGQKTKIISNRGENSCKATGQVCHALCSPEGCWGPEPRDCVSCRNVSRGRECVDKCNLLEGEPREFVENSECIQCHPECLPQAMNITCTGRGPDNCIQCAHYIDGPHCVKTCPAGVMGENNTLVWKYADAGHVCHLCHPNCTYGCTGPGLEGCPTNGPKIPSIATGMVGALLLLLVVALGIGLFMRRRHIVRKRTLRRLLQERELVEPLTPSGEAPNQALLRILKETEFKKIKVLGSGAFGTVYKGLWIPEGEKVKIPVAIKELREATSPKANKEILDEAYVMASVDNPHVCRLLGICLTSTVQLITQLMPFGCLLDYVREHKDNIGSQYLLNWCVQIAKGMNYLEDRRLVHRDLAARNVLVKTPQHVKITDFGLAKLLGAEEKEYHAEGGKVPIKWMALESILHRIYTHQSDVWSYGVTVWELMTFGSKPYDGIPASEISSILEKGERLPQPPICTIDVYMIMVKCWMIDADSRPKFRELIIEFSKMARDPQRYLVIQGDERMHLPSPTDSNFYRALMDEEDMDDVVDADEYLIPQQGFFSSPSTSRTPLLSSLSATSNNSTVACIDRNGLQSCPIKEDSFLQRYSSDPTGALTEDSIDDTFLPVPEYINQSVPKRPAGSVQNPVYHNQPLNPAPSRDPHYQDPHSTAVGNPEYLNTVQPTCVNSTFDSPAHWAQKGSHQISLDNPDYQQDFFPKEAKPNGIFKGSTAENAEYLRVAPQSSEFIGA
Experimental: Inhibition of EGFR Autophosphorylation in A431 Human Epithelial Cells Stimulated with Epithelial Growth Factor
A431 cells (ATCC # CRL-1555 FZ) are thawed and plated in DMEM containing 10% FBS in a 384-well tissue culture treated plate at 15,000 cells/well. After incubating for 24 hours at 37° C., 5% CO2, the cells are treated with test compound (1% DMSO final concentration) and incubated for 16 hours at 37° C., 5% CO2. EGF (Millipore, 01-107) is added at a final concentration of 60 ng/mL and incubated for 10 minutes. The medium is removed, the cells are lysed, and phospho EGFR is measured (Meso Scale Diagnostics, N31CB-1).
as §1

Chain of human full length His-tagged BTK (Q06187 whole entry): as the sequence (Q06187 whole entry) above

| SMILES | IC50 [1] [nM] | IC50 (BTK) [nM] | IC50 (EGFR) [nM] |
| --- | --- | --- | --- |
| Cn1cc(-c2cccc(-n3c(C4CN(C#N)C4)cc4cc(C5CC5)ccc4c3=O)c2CO)cc1C(N)=O [Example 1] | 0.7 | 4.3 | 4700 |
| C=CC(=O)N1CC(Cc2cc3cc(C4CC4)ccc3c(=O)n2-c2cccc(-c3cc(C(N)=O)n(C)c3)c2CO)C1 [Example 2] | 4 | 36 | > 10000 |
| N#CN1CC(c2cc3cc(C4CC4)ccc3c(=O)n2-c2cccc(-c3ccc4[nH]ncc4c3)c2CO)C1 [Example 3] | 1.9 |  |  |
| N#CN1CC(c2cc3cc(C4CC4)ccc3c(=O)n2-c2cccc(-c3cccc(C(N)=O)c3)c2CO)C1 [Example 4] | 5 |  |  |
| C=CC(=O)N1CC(c2cc3cc(C4CC4)ccc3c(=O)n2-c2cccc(-c3cccc(C(N)=O)c3)c2CO)C1 [Example 5] | 5.2 | 100 | > 10000 |
| C=CC(=O)N1CCC1Cc1cc2cc(C3CC3)ccc2c(=O)n1-c1cccc(-c2cc(C(N)=O)n(C)c2)c1CO (stereo not shown) [Example 6] | 3.9 | 16 | 4500 |
| C=CC(=O)N1CC(c2cc3cc(C4CC4)ccc3c(=O)n2-c2cccc(-c3cc(C(N)=O)n(C)c3)c2CO)C1 [Example 7] | 0.7 | 5.6 | > 10000 |
| CC#CC(=O)N1CC(Cc2cc3cc(C4CC4)ccc3c(=O)n2-c2cccc(-c3cc(C(N)=O)n(C)c3)c2CO)C1 [Example 8] | 11 | 96 | > 10000 |
| Cn1cc(-c2cccc(-n3c(C4CN(C#N)C4)cc4cc(C5CC5)ccc4c3=O)c2CO)cc(N)c1=O [Example 9] | 2.6 |  |  |
| C=CC(=O)N1CC(c2cc3cc(C4CC4)ccc3c(=O)n2-c2cccc(-c3cc(N)c(=O)n(C)c3)c2CO)C1 [Example 11] | 1.9 | 21 | > 10000 |
| N#CN1CC(c2cc3cc(C4CC4)ccc3c(=O)n2-c2cccc(-c3cc(N)ncn3)c2CO)C1 [Example 12] | 3.3 | 28 | 4500 |
| C=CC(=O)N1CCC(c2cc3cc(C4CC4)ccc3c(=O)n2-c2cccc(-c3cc(C(N)=O)n(C)c3)c2CO)C1 (stereo not shown) [Example 13] | 2.4 | 12 | > 10000 |
| C=CC(=O)N1CC(Cc2cc3cc(C4CC4)ccc3c(=O)n2-c2cccc(-c3cc(N)ncn3)c2CO)C1 [Example 14] | 19 | 85 | > 10000 |
| C=CC(=O)N1CC(c2cc3cc(C4CC4)ccc3c(=O)n2-c2cccc(-c3ccnc(NC)c3)c2CO)C1 [Example 15] | 4.2 | 8.8 | > 10000 |
| C=CC(=O)N1CCC(c2cc3cc(C4CC4)ccc3c(=O)n2-c2cccc(-c3cc(N)c(=O)n(C)c3)c2CO)C1 (stereo not shown) [Example 16] | 20 | 92 | > 10000 |
| C=CC(=O)N1CC(c2cc3cc(C4CC4)ccc3c(=O)n2-c2cccc(-c3ccnc(N)c3)c2CO)C1 [Example 17] |  | 3.7 | > 10000 |
| C=CC(=O)N(C)Cc1cc2cc(C3CC3)ccc2c(=O)n1-c1cccc(-c2cc(C(N)=O)n(C)c2)c1CO [Example 18] | 59 | 160 | > 10000 |
| CC#CC(=O)N1CC(c2cc3cc(C4CC4)ccc3c(=O)n2-c2cccc(-c3cc(C(N)=O)n(C)c3)c2CO)C1 [Example 19] | 64 |  |  |
| C=CC(=O)N1CC(c2cc3cc(C4CC4)ccc3c(=O)n2-c2cccc(-c3ccnc(N)c3)c2Cl)C1 [Example 20] | 8.9 | 37 | 3200 |
| C=CC(=O)N1CC(c2cc3cc(C4CC4)ccc3c(=O)n2-c2cccc(-c3cc(N)ncn3)c2CO)C1 [Example 21] | 0.48 | 1.9 | > 10000 |
| C=CC(=O)N1CCC(c2cc3cc(C4CC4)ccc3c(=O)n2-c2cccc(-c3ccncc3)c2CO)C1 (stereo not shown) [Example 22] | 37 |  |  |
| C=CC(=O)N(C)Cc1cc2cc(C3CC3)ccc2c(=O)n1-c1cccc(-c2ccnc(N)c2)c1CO [Example 23] | 120 |  |  |
| C=CC(=O)N(C)Cc1cc2cc(C3CC3)ccc2c(=O)n1-c1cccc(-c2cc(N)c(=O)n(C)c2)c1CO [Example 24] | 140 |  |  |
| C=CC(=O)N1CCC(c2cc3cc(C4CC4)ccc3c(=O)n2-c2cccc(-c3ccn4cncc4c3)c2CO)C1 (stereo not shown) [Example 25] | 160 |  |  |

Second part, the compound after the results:

| IC50 [1] [nM] | IC50 (BTK) [nM] | IC50 (EGFR) [nM] | SMILES |
| --- | --- | --- | --- |
| 560 |  |  | C=CC(=O)N1CC(c2cc3cc(C4CC4)ccc3c(=O)n2-c2cccc(-c3cc(C(N)=O)n(C)c3)c2CO)C1 (single isomer, unassigned) [Example 42] |
| 0.56 | 3.6 | > 10000 | C=CC(=O)N1CC(c2cc3cc(C4CC4)ccc3c(=O)n2-c2cccc(-c3cc(C(N)=O)n(C)c3)c2CO)C1 (single isomer, unassigned) [Example 43] |
| 230 |  |  | C/C=C/C(=O)N1CC(c2cc3cc(C4CC4)ccc3c(=O)n2-c2cccc(-c3cc(C(N)=O)n(C)c3)c2CO)C1 [Example 26] |
| 310 |  |  | C=CC(=O)N1CC(Cc2cc3cc(C4CC4)ccc3c(=O)n2-c2cccc(-c3ccc4cncn4c3)c2CO)C1 [Example 27] |
| 310 |  |  | CC#CC(=O)N1CC(c2cc3cc(C4CC4)ccc3c(=O)n2-c2cccc(-c3cc(N)c(=O)n(C)c3)c2CO)C1 [Example 28] |
| 440 |  |  | C/C=C/C(=O)N1CC(c2cc3cc(C4CC4)ccc3c(=O)n2-c2cccc(-c3ccnc(NC)c3)c2CO)C1 [Example 29] |
| 450 |  |  | CC#CC(=O)N1CC(c2cc3cc(C4CC4)ccc3c(=O)n2-c2cccc(-c3ccc4[nH]ncc4c3)c2CO)C1 [Example 30] |
| 480 |  |  | Cn1cc(-c2cccc(-n3c(C4CCN(C#N)C4)cc4cc(C5CC5)ccc4c3=O)c2CO)cc(N)c1=O (stereo not shown) [Example 31] |
| 490 |  |  | CN(C#N)Cc1cc2cc(C3CC3)ccc2c(=O)n1-c1cccc(-c2cc(N)c(=O)n(C)c2)c1CO [Example 32] |
| 510 |  |  | C=CC(=O)N1CC(Cc2cc3cc(C4CC4)ccc3c(=O)n2-c2cccc(-c3ccnc(NC)c3)c2CO)C1 [Example 33] |
| 530 |  |  | CC#CC(=O)N(C)Cc1cc2cc(C3CC3)ccc2c(=O)n1-c1cccc(-c2cc(C(N)=O)n(C)c2)c1CO [Example 34] |
| 530 |  |  | CC#CC(=O)N1CC(c2cc3cc(C4CC4)ccc3c(=O)n2-c2cccc(-c3ccnc(NC)c3)c2CO)C1 [Example 35] |
| 580 |  |  | C=CC(=O)N(C)Cc1cc2cc(C3CC3)ccc2c(=O)n1-c1cccc(-c2cccc(C(N)=O)c2)c1CO [Example 36] |
| 620 |  |  | C=CC(=O)N1CCC(c2cc3cc(C4CC4)ccc3c(=O)n2-c2cccc(-c3ccnc(N)c3F)c2CO)C1 (stereo not shown) [Example 37] |
| 250 |  |  | C=CC(=O)N1CC(Cc2cc3cc(C4CC4)cc(OC)c3c(=O)n2-c2cccc(-c3cc(C(N)=O)n(C)c3)c2CO)C1 [Example 38] |
| 0.42 | 4.6 | > 10000 | C=CC(=O)N1CC(c2cc3cc(C4CC4)cc(F)c3c(=O)n2-c2cccc(-c3cc(C(N)=O)n(C)c3)c2CO)C1 [Example 40] |
| 0.71 |  |  | C=CC(=O)N1CC(Cc2cc3cc(C4CC4)cc(F)c3c(=O)n2-c2cccc(-c3cc(C(N)=O)n(C)c3)c2CO)C1 [Example 41] |

— patent US10570118B2, “Isoquinolones as BTK inhibitors” (Boehringer Ingelheim International GmbH, priority 2016, dated 2020)
